Assay results taken from patent EP4603105A1, “PHARMACEUTICAL COMPOSITION CONTAINING CYCLIC COMPOUND HAVING SELECTIVE KRAS INHIBITORY EFFECT AGAINST HRAS AND NRAS” (CHUGAI SEIYAKU KABUSHIKI KAISHA, priority 2022, dated 2024).
Like-named read-outs stand apart in the source and are kept apart here.

Tests used:
[1] = target: GDP-bound KRAS wild-type protein (Homo sapiens, UniProt P01116); assay: Binding to KRAS by surface plasmon resonance (SPR), dissociation constant KD
Method in brief: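 Single-cycle kinetics on GDP-loaded biotin-Avi RAS captured to ~100–300 RU; 75 s ascending injections, 100 µL/min, 30°C. HBS pH 7.4 + 10 mM MgCl2/10 µM GDP/4% DMSO. 1:1 fit, KD.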

[2] = target: HRAS wild-type protein (Homo sapiens, UniProt P01112); assay: Binding to HRAS by surface plasmon resonance (SPR), KD and KD ratio to KRAS
Method in brief: (§1)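 Compound binding is evaluated by SPR single-cycle kinetics, with concentrations added intermittently from low to high for 75 s each. Target surfaces carry GDP-loaded biotinylated Avi-RAS at about 100–300 RU, regenerated after each cycle; temperature 30°C. A 1:1 binding model gives KD.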

[3] = target: GDP-bound NRAS wild-type protein (Homo sapiens, UniProt P01111); assay: Binding to NRAS by surface plasmon resonance (SPR), KD and KD ratio to KRAS
Method in brief: as §1

[4] = system: human lung cancer strain NCI-H441; assay: NCI-H441 cell proliferation inhibitory activity (CellTiter-Glo, 4 days); format: cell-based; conditions: read-out: NCl-H441 IC50
Method in brief: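 Proliferation was scored by […] measured after the reagent was added to cultures kept at 37°C in 5% carbon dioxide.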

[5] = ratio of KD for HRAS wild-type protein to KD for KRAS
[6] = ratio of KD for GDP-bound NRAS wild-type protein to KD for KRAS
[7] = Single Cycle Kinetics, 1:1 binding model
[8] = ratio of KD with respect to HRAS wild-type protein to KD with respect to KRAS
[9] = ratio of KD with respect to GDP-bound NRAS wild-type protein to KD with respect to KRAS
[10] = 50% proliferation inhibitory concentration, four days

Sequence of GDP-bound NRAS wild-type protein (P01111 whole entry): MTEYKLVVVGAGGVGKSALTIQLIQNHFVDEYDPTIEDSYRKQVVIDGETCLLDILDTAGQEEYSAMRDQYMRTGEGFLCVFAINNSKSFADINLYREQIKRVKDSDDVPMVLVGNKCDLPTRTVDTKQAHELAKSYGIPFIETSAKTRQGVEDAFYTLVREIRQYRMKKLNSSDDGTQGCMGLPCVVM
Sequence of HRAS wild-type protein (P01112 whole entry): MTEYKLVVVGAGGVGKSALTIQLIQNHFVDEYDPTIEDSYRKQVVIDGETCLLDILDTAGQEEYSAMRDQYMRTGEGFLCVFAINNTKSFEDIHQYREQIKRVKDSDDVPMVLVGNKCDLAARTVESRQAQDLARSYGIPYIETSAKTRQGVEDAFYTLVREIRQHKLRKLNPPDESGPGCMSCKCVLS
Sequence of GDP-bound KRAS wild-type protein (P01116 1-188 isoform P01116-2): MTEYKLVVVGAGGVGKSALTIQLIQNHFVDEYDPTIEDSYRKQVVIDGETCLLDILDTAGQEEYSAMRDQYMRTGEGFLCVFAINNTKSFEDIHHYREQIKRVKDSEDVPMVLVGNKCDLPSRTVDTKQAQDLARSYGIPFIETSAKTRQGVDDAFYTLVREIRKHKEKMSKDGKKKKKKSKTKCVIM

Row | Kd ([1]; Single Cycle Kinetics) [nM] | IC50 ([4]; NCI-H441 cells, 4 days) [nM] | Kd ([1]; 1:1 binding model) [nM] | Kd [1, 7] [nM] | IC50 [4, 10] [nM] | SMILES | HRAS /KRAS [2, 5] | NRAS /KRAS [3, 6] | HRAS /KRAS [2, 8] | NRAS /KRAS [3, 9]
1 | 0.65 | 19.4 | – | – | – | CCCC[C@H]1C(=O)N[C@@H]([C@@H](C)CC)C(=O)N2CCC[C@H]2C(=O)N(C)[C@H]2C/C=C\CCN(C2=O)[C@@H](Cc2ccc(C(F)(F)F)cc2)C(=O)N(C)CC(=O)N[C@@H](CCc2ccc(C(F)(F)F)c(OC)c2)C(=O)N2C[C@H](OCC)C[C@H]2C(=O)OC2(CCC2)C(=O)N(C)[C@@H](C2CCCC2)C(=O)N(C)[C@H](C(=O)N(C)C)CC(=O)N1C [PP3365] | A (a compound having 10 or more and less than 20 is denoted as A) | AA (a compound having 20 or more is denoted as AA) | – | –
2 | – | 28.1 | 1.2 | – | – | CC[C@H](C)[C@@H]1NC(=O)[C@H](COC)N(C)C(=O)C[C@@H](C(=O)N(C)C)N(C)C(=O)[C@H](C2CCCC2)N(C)C(=O)C2(CC(C)(C)C2)NC(=O)[C@@H]2C[C@H](C)CN2C(=O)[C@H](CCc2ccc(C(F)(F)F)c(OC)c2)NC(=O)CN(C)C(=O)[C@H](Cc2ccc(C)cc2)N2CC/C=C\C[C@@H](C2=O)N(C)C(=O)[C@@H]2C[C@H](C)CN2C1=O [PP2386] | B (a compound having 3 or more and less than 10 is denoted as B) | A (a compound having 10 or more and less than 20 is denoted as A) | – | –
3 | – | 374 | 4.9 | – | – | CCC[C@H]1C(=O)N[C@@H](CC(C)C)C(=O)N(CCOC)CC(=O)N(C)[C@H]2C/C=C\CCN(C2=O)[C@@H](Cc2ccc(C)cc2)C(=O)N(C)CC(=O)N[C@@H](CCc2cc(F)c(C(F)(F)F)c(F)c2)C(=O)N2C[C@H](OCC)C[C@H]2C(=O)NC2(CCC2)C(=O)N(C)[C@@H](C2CCCC2)C(=O)N(C)[C@H](C(=O)N(C)C)CC(=O)N1C [PP2541] | B (a compound having 3 or more and less than 10 is denoted as B) | A (a compound having 10 or more and less than 20 is denoted as A) | – | –
4 | 0.32 | 12.8 | – | – | – | CCC[C@H]1C(=O)N[C@@H]([C@@H](C)CC)C(=O)N(C)CC(=O)N(C)[C@H]2C/C=C\CCN(C2=O)[C@@H](Cc2ccc(C(F)(F)F)cc2)C(=O)N(C)CC(=O)N[C@@H](CCc2ccc(C(F)(F)F)c(OC)c2)C(=O)N2CC3(CC3)C[C@H]2C(=O)NC2(CCC2)C(=O)N(C)[C@@H](C(CC)CC)C(=O)N(C)[C@H](C(=O)N(C)C)CC(=O)N1C [PP3408] | A (a compound having 10 or more and less than 20 is denoted as A) | AA (a compound having 20 or more is denoted as AA) | – | –
5 | 1.8 | 55.6 | – | – | – | CCO[C@@H]1C[C@H]2C(=O)NC3(CCCC3)C(=O)N(C)[C@@H](C3CCC3)C(=O)N(C)[C@H](C(=O)N(C)C)CC(=O)N(C)[C@@H](CC(C)C)C(=O)N[C@@H]([C@@H](C)CC)C(=O)N(C)CC(=O)N(C)[C@H]3C/C(F)=C\CCN(C3=O)[C@@H](Cc3ccc(C)cc3)C(=O)N(C)CC(=O)N[C@@H](CCc3cc(F)c(C(F)(F)F)c(F)c3)C(=O)N2C1 [PP3517] | B (a compound having 3 or more and less than 10 is denoted as B) | B (a compound having 3 or more and less than 10 is denoted as B) | – | –
6 | 0.1 | 2.2 | – | – | – | C#CC[C@H]1C(=O)N[C@@H]([C@@H](C)CC)C(=O)N2CCC[C@H]2C(=O)N(C)[C@H]2C/C=C\CCN(C2=O)[C@@H](Cc2ccc(C)cc2)C(=O)N(C)CC(=O)N[C@@H](CCc2ccc(C(F)(F)F)c(Cl)c2)C(=O)N2C[C@H](OCC)C[C@H]2C(=O)N(C)C2(CCC2)C(=O)N(C)[C@@H](C2CCCC2)C(=O)N(C)[C@H](C(=O)N(C)C)CC(=O)N1C [PP3257] | B (a compound having 3 or more and less than 10 is denoted as B) | A (a compound having 10 or more and less than 20 is denoted as A) | – | –
7 | – | – | – | 0.081 | 9 | CCCCCC[C@H]1C(=O)N[C@@H]([C@@H](C)CC)C(=O)N(C)CC(=O)N(C)[C@H]2C/C=C\CCN(C2=O)[C@@H](Cc2ccc(C(F)(F)F)cc2)C(=O)N(C)CC(=O)N[C@@H](CCc2ccc(C(F)(F)F)c(OC)c2)C(=O)N2C[C@H](OCC)C[C@H]2C(=O)NC2(CCC2)C(=O)N(C)[C@@H](C2CCCC2)C(=O)N(C)[C@H](C(=O)N(C)C)CC(=O)N1C [PP1246] | – | – | A (a compound having 10 or more and less than 20 is denoted as A) | A (a compound having 10 or more and less than 20 is denoted as A)
8 | 0.51 | 44.7 | – | – | – | CCO[C@@H]1C[C@H]2C(=O)NC3(CCCC3)C(=O)N(C)[C@@H](C3CCCC3)C(=O)N(C)[C@H](C(=O)N(C)C)CC(=O)N(C)[C@@H]([C@@H](C)OC)C(=O)N[C@@H]([C@@H](C)CC)C(=O)N3CCC[C@H]3C(=O)N(C)[C@H]3C/C=C\CCN(C3=O)[C@@H](Cc3ccc(C(F)(F)F)cc3)C(=O)N(C)CC(=O)N[C@@H](CCc3cc(F)c(C(F)(F)F)c(F)c3)C(=O)N2C1 [PP3477] | A (a compound having 10 or more and less than 20 is denoted as A) | A (a compound having 10 or more and less than 20 is denoted as A) | – | –
9 | – | – | – | 0.17 | 34.7 | CCO[C@@H]1C[C@H]2C(=O)NC3(CCC3)C(=O)N(C)[C@@H](C3CCCC3)C(=O)N(C)[C@H](C(=O)N3CCCCC3)CC(=O)N(C)[C@@H](CC)C(=O)N[C@@H]([C@@H](C)CC)C(=O)N(C)CC(=O)N(C)[C@H]3C/C=C\CCN(C3=O)[C@@H](Cc3ccc(C(F)(F)F)cc3)C(=O)N(C)CC(=O)N[C@@H](CCc3cc(F)c(C(F)(F)F)c(F)c3)C(=O)N2C1 [PP1289] | – | – | A (a compound having 10 or more and less than 20 is denoted as A) | AA (a compound having 20 or more is denoted as AA)
10 | 0.82 | 22.7 | – | – | – | CCC[C@H]1C(=O)N[C@@H]([C@@H](C)CC)C(=O)N2CCCC[C@H]2C(=O)N(C)[C@H]2C/C=C\CCN(C2=O)[C@@H](Cc2ccc(C(F)(F)F)cc2)C(=O)N(C)CC(=O)N[C@@H](CCc2cc(F)c(C(F)(F)F)c(F)c2)C(=O)N2C[C@H](OCC)C[C@H]2C(=O)N(C)C2(CCC2)C(=O)N(C)[C@@H](C2CCCC2)C(=O)N(C)[C@H](C(=O)N(C)C)CC(=O)N1C [PP3271] | B (a compound having 3 or more and less than 10 is denoted as B) | A (a compound having 10 or more and less than 20 is denoted as A) | – | –
11 | 0.23 | 16.4 | – | – | – | CCC[C@H]1C(=O)N[C@@H](C2CCCC2)C(=O)N(C)CC(=O)N(C)[C@H]2C/C=C\CCN(C2=O)[C@@H](Cc2ccc(C)cc2)C(=O)N(C)CC(=O)N[C@@H](CCc2ccc(C(F)(F)F)c(Cl)c2)C(=O)N2CC3(CC3)C[C@H]2C(=O)N(C)C2(CCC2)C(=O)N(C)[C@@H](C(CC)CC)C(=O)N(C)[C@H](C(=O)N(C)C)CC(=O)N1C [PP3324] | B (a compound having 3 or more and less than 10 is denoted as B) | AA (a compound having 20 or more is denoted as AA) | – | –
12 | – | – | – | 0.11 | 14 | CC[C@H](C)[C@@H]1NC(=O)[C@H](CC)N(C)C(=O)C[C@@H](C(=O)N2CCOCC2)N(C)C(=O)[C@H](C2CCCC2)N(C)C(=O)C2(CCC2)NC(=O)[C@@H]2CCCN2C(=O)[C@H](CCc2cc(F)c(C(F)(F)F)c(F)c2)NC(=O)CN(C)C(=O)[C@H](Cc2ccc(C(F)(F)F)cc2)N2C[C@H](C)[C@H](C)C[C@@H](C2=O)N(C)C(=O)CN(C)C1=O [PP1366] | – | – | B (a compound having 3 or more and less than 10 is denoted as B) | A (a compound having 10 or more and less than 20 is denoted as A)
13 | – | – | – | 0.13 | 5.4 | CCO[C@@H]1C[C@H]2C(=O)NC3(CCC3)C(=O)N(C)[C@@H](C3CCCC3)C(=O)N(C)[C@H](C(=O)N3CCOCC3)CC(=O)N(C)[C@@H](CC)C(=O)N[C@@H]([C@@H](C)CC)C(=O)N3CC[C@H]3C(=O)N(C)[C@H]3C[C@@H](C)[C@@H](C)CN(C3=O)[C@@H](Cc3ccc(C(F)(F)F)cc3)C(=O)N(C)CC(=O)N[C@@H](CCc3ccc(C(F)(F)F)c(Cl)c3)C(=O)N2C1 [PP1357] | – | – | B (a compound having 3 or more and less than 10 is denoted as B) | A (a compound having 10 or more and less than 20 is denoted as A)
14 | – | – | – | 0.65 | 58.8 | CCO[C@@H]1C[C@H]2C(=O)NC3(CCC3)C(=O)N(C)[C@@H](C(CC)CC)C(=O)N(C)[C@H](C(=O)N3CCOCC3)CC(=O)N(C)[C@@H](CC)C(=O)N[C@@H]([C@@H](C)CC)C(=O)N(C)CC(=O)N(C)[C@H]3C/C=C\CCN(C3=O)[C@@H](Cc3ccc(C(F)(F)F)cc3)C(=O)N(C)CC(=O)N[C@@H](CCc3cc(F)c(C(F)(F)F)c(F)c3)C(=O)N2C1 [PP1286] | – | – | A (a compound having 10 or more and less than 20 is denoted as A) | AA (a compound having 20 or more is denoted as AA)
15 | – | 2.1 | 0.85 | – | – | CCC[C@H]1C(=O)N[C@@H]([C@@H](C)CC)C(=O)N2CCC[C@H]2C(=O)N(C)[C@H]2C/C=C\CCN(C2=O)[C@@H](CC2CCC(F)(F)CC2)C(=O)N(C)CC(=O)N[C@@H](CCc2ccc(C(F)(F)F)c(OC)c2)C(=O)N2C[C@@H](C)C[C@H]2C(=O)N(C)C2(CCC2)C(=O)N(C)[C@@H](C2CCCC2)C(=O)N(C)[C@H](C(=O)N(C)C)CC(=O)N1C [PP2380] | A (a compound having 10 or more and less than 20 is denoted as A) | A (a compound having 10 or more and less than 20 is denoted as A) | – | –
